From paper PMC10504751, “Chalcone/1,3,4-Oxadiazole/Benzimidazole hybrids as novel anti-proliferative agents inducing apoptosis and inhibiting EGFR & BRAFV^600E” (BMC Chemistry, 2023)
Read-outs that look alike come from different tables or passages of the source.

Experiments:
Assay type in all cases: cell-based
MCF-7 = test: Propidium iodide anti-proliferative assay; conditions: Homo sapiens, MCF7; 48 h incubation; read-out: IC50 ± SEM MCF-7
Description: (§1) The propidium iodide (PI) tests^31, 32 were further used for assessment of the IC50 of all synthesized compounds and compared to Doxorubicin as a positive control against four cancer cell lines; pancreatic cancer cell line (Panc-1), epithelial line cancer cell (A-549), breast cancer cell line (MCF-7), and colon cancer cell line (HT-29).
(§2) Using the propidium iodide fluorescence assay with doxorubicin as the reference drug, IC50 of the 24 compounds 7a-x, was carried out according to a previously reported procedure^31, 32 against a panel of four human cancer cell lines; epithelial cancer cell line (A-549), breast cancer cell line (MCF-7), colon cancer cell line (HT-29) and pancreas cancer cell line (Panc-1). Compounds 7a-x were incubated with cancer cells for 2 days at different concentrations. See Appendix A.
(§3) To explore the antiproliferative potential of compounds propidium iodide fluorescence assay was performed using different cell lines (melanoma cancer cell line LOX-IMVI, pancreatic cancer cell line (Panc-1), epithelial line cancer cell (A-549), breast cancer cell line (MCF-7), and colon cancer cell line (HT-29). To calculate the total nuclear DNA, a fluorescent dye (propidium iodide, PI) is used which can attach to the DNA,^9,^10 thus offering a quick and precise technique. PI cannot pass through the cell membrane and its signal intensity can be considered as directly proportional to the quantity of cellular DNA. Cells whose cell membranes are damaged or have changed permeability are counted as dead ones. The assay was performed by seeding the cells of different cancer cell lines at a density of 3000-7500 cells/well (in 200µl medium) in culture plates followed by incubation for 24h at 37 °C in humidified 5% CO2/95% air atmospheric conditions. The medium was removed; the compounds were added to the plates at 10 µM concentrations (in 0.1% DMSO) in triplicates, followed by incubation for 48 h. DMSO (0.1%) was used as control. After incubation, medium was removed followed by the addition of PI (25 µl, 50µg/mL in water/medium) to each well of the plates. At -80 °C, the plates were allowed to freeze for 24 h, followed by thawing at 25 °C. A fluorometer (Polar-Star BMG Tech) was used to record the readings at excitation and emission wavelengths of 530 and 620 nm for each well. The percentage cytotoxicity of compounds was calculated using the following formula:
(§4) Where ATC= Absorbance of treated cells and AC= Absorbance of control. […]

HT-29 = test: Propidium iodide anti-proliferative assay; conditions: Homo sapiens, 48 h incubation, read-out: IC50 ± SEM HT-29
Description: as §1, §2, §3, §4

A-549 = test: Propidium iodide anti-proliferative assay; conditions: Homo sapiens, A549; 48 h incubation; read-out: IC50 ± SEM A-549
Description: as §1, §2, §3, §4

Panc-1 = test: Propidium iodide anti-proliferative assay; conditions: Homo sapiens, 48 h incubation, read-out: IC50 ± SEM Panc-1
Description: as §1, §2, §3, §4

U251 = test: NCI one-dose SRB anti-proliferative screen; conditions: Homo sapiens, U-251, read-out: Cell growth inhibition %
Description: (§5) The twenty-four synthesized compounds were submitted to the National Cancer Institute (NCI), USA. Eighteen hybrids 7a-h, 7k-r, 7u, and 7v were selected by NCI for one-dose assessment of their anti-proliferative activities at 10 µM dose by Sulforhodamine B colorimetric assay. The assessment was performed in 60 cell lines derived from nine tumor subpanels, comprising lung, leukemia, melanoma, colon, renal, CNS, prostate, breast, and ovarian cancer cell lines.
(§6) The methodology of the NCI anti-proliferative screening has been described in details elsewhere (http://www.dtp.nci.nih.gov).

SR = test: NCI one-dose SRB anti-proliferative screen; conditions: Homo sapiens, read-out: Cell growth inhibition %
Description: as §5, §6

UACC-62 = test: NCI one-dose SRB anti-proliferative screen; conditions: Homo sapiens, read-out: Cell growth inhibition %
Description: as §5, §6

HS 578T = test: NCI one-dose SRB anti-proliferative screen; conditions: Homo sapiens, read-out: Cell growth inhibition %
Description: as §5, §6

SN12C = test: NCI one-dose SRB anti-proliferative screen; conditions: Homo sapiens, read-out: Cell growth inhibition %
Description: as §5, §6

RPMI-8226 = test: NCI one-dose SRB anti-proliferative screen; conditions: Homo sapiens, read-out: Cell growth inhibition %
Description: as §5, §6

MDA-MB-468 = test: NCI one-dose SRB anti-proliferative screen; conditions: Homo sapiens, read-out: Cell growth inhibition %
Description: as §5, §6

A498 = test: NCI one-dose SRB anti-proliferative screen; conditions: Homo sapiens, read-out: Cell growth inhibition %
Description: as §5, §6

EKVX = test: NCI one-dose SRB anti-proliferative screen; conditions: Homo sapiens, read-out: Cell growth inhibition %
Description: as §5, §6

ACHN = test: NCI one-dose SRB anti-proliferative screen; conditions: Homo sapiens, read-out: Cell growth inhibition %
Description: as §5, §6

SK-MEL-2 = test: NCI one-dose SRB anti-proliferative screen; conditions: Homo sapiens, read-out: Cell growth inhibition %
Description: as §5, §6

OVCAR-3 = test: NCI one-dose SRB anti-proliferative screen; conditions: Homo sapiens, read-out: Cell growth inhibition %
Description: as §5, §6

NCI-H226 = test: NCI one-dose SRB anti-proliferative screen; conditions: Homo sapiens, read-out: Cell growth inhibition %
Description: as §5, §6

HOP-62 = test: NCI one-dose SRB anti-proliferative screen; conditions: Homo sapiens, read-out: Cell growth inhibition %
Description: as §5, §6

CAKI-1 = test: NCI one-dose SRB anti-proliferative screen; conditions: Homo sapiens, read-out: Cell growth inhibition %
Description: as §5, §6

MDA-MB-435 = test: NCI one-dose SRB anti-proliferative screen; conditions: Homo sapiens, read-out: Cell growth inhibition %
Description: as §5, §6

786-0 = test: NCI one-dose SRB anti-proliferative screen; conditions: Homo sapiens, read-out: Cell growth inhibition %
Description: as §5, §6

[1] = U251 (CNS Cancer), NCI one dose 10 µM
[2] = SR (Leukemia), NCI one dose 10 µM
[3] = UACC-62 (Melanoma), NCI one dose 10 µM
[4] = HS 578T (Breast Cancer), NCI one dose 10 µM
[5] = SN 12C (Renal Cancer), NCI one dose 10 µM
[6] = RPMI-8226 (Leukemia), NCI one dose 10 µM
[7] = MDA-MB-468 (Breast Cancer), NCI one dose 10 µM
[8] = A498 (Renal Cancer), NCI one dose 10 µM
[9] = EKVX (Non-Small Cell Lung Cancer), NCI one dose 10 µM
[10] = ACHN (Renal Cancer), NCI one dose 10 µM
[11] = SK-MEL-2 (Melanoma), NCI one dose 10 µM
[12] = OVCAR-3 (Ovarian Cancer), NCI one dose 10 µM
[13] = NCI-H226 (Non-Small Cell Lung Cancer), NCI one dose 10 µM
[14] = HOP-62 (Non-Small Cell Lung Cancer), NCI one dose 10 µM
[15] = CAKI-1 (Renal Cancer), NCI one dose 10 µM
[16] = MDA-MB-435 (Melanoma), NCI one dose 10 µM
[17] = 786-0 (Renal Cancer), NCI one dose 10 µM

COc1cc(/C=C/C(=O)c2ccc(NC(=O)CSc3nnc(-c4ccc5[nH]c(-c6ccccc6)nc5c4)o3)cc2)cc(OC)c1OC [Compound 7e, 2-{5-[2-Phenyl-1 H-benzo[d]imidazol-5-yl]-1,3,4-oxadiazol-2-ylthio}-N-{4-[(E)-3-(3,4,5-trimethoxyphenyl)acryloyl]phenyl}acetamide]
IC50 (MCF-7): 1.25 ± 0.08 µM
IC50 (HT-29): 1.95 ± 0.3 µM
IC50 (A-549): 1.6 ± 0.3 µM
IC50 (Panc-1): 1.7 ± 0.3 µM
inhibition at 10 µM (U251; U251, CNS Cancer, NCI one dose): 19.4%
inhibition at 10 µM (SR; SR, Leukemia, NCI one dose): 63.2%
inhibition at 10 µM (UACC-62; UACC-62, Melanoma, NCI one dose): 17%
inhibition at 10 µM (HS 578T; HS 578T, Breast cancer, NCI one dose): 14.5%
inhibition at 10 µM (SN12C; SN 12C, Renal cancer, NCI one dose): 9.21%
inhibition at 10 µM (RPMI-8226; RPMI-8226, Leukemia, NCI one dose): 69.3%
inhibition at 10 µM (MDA-MB-468; MDA-MB-468, Breast cancer, NCI one dose): 5.09%
inhibition at 10 µM (A498; A498, Renal cancer, NCI one dose): 15.6%
inhibition at 10 µM (EKVX; EKVX, Non-Small Cell Lung Cancer, NCI one dose): 0.96%
inhibition at 10 µM (ACHN; ACHN, Renal cancer, NCI one dose): 0%
inhibition at 10 µM (SK-MEL-2; SK-MEL-2, Melanoma, NCI one dose): 0%
inhibition at 10 µM (OVCAR-3; OVCAR-3, Ovarian Cancer, NCI one dose): 27.9%
inhibition at 10 µM (NCI-H226; NCI-H226, Non-Small Cell Lung Cancer, NCI one dose): 0.66%
inhibition at 10 µM (HOP-62; HOP-62, Non-Small Cell Lung Cancer, NCI one dose): 0%
inhibition at 10 µM (CAKI-1; CAKI-1, Renal cancer, NCI one dose): 0%
inhibition at 10 µM (MDA-MB-435; MDA-MB-435, Melanoma, NCI one dose): 5.93%
inhibition at 10 µM (786-0; 786-0, Renal cancer, NCI one dose): 24.6%

O=C(CSc1nnc(-c2ccc3[nH]c(-c4ccc(Cl)cc4)nc3c2)o1)Nc1ccc(C(=O)/C=C/c2ccccc2)cc1 [Compound 7f, 2-{5-[2-(4-Chlorophenyl)-1 H-benzo[d]imidazol-5-yl]-1,3,4-oxadiazol-2-ylthio}-N-{4-[(E)-3-phenylacryloyl]phenyl}acetamide]
IC50 (MCF-7): 2.05 ± 0.5 µM
IC50 (HT-29): 2.7 ± 0.5 µM
IC50 (A-549): 2.15 ± 0.5 µM
IC50 (Panc-1): 2.4 ± 0.6 µM
inhibition at 10 µM (U251; [1]): 3.23%
inhibition at 10 µM (SR; [2]): 15.2%
inhibition at 10 µM (UACC-62; [3]): 5.12%
inhibition at 10 µM (HS 578T; [4]): 0%
inhibition at 10 µM (SN12C; [5]): 0%
inhibition at 10 µM (RPMI-8226; [6]): 23.2%
inhibition at 10 µM (MDA-MB-468; [7]): 0%
inhibition at 10 µM (A498; [8]): 0%
inhibition at 10 µM (EKVX; [9]): 0%
inhibition at 10 µM (ACHN; [10]): 0%
inhibition at 10 µM (SK-MEL-2; [11]): 0%
inhibition at 10 µM (OVCAR-3; [12]): 0%
inhibition at 10 µM (NCI-H226; [13]): 2.19%
inhibition at 10 µM (HOP-62; [14]): 0%
inhibition at 10 µM (CAKI-1; [15]): 1.83%
inhibition at 10 µM (MDA-MB-435; [16]): 0%
inhibition at 10 µM (786-0; [17]): 0%

O=C(CSc1nnc(-c2ccc3[nH]c(-c4ccc(Cl)cc4)nc3c2)o1)Nc1ccc(C(=O)/C=C/c2ccc(Cl)cc2)cc1 [Compound 7g, 2-{5-[2-(4-Chlorophenyl)-1 H-benzo[d]imidazol-5-yl]-1,3,4-oxadiazol-2-ylthio}-N-{4-[(E)-3-(4-chlorophenyl)acryloyl]phenyl}acetamide]
IC50 (MCF-7): 1.45 ± 0.3 µM
IC50 (HT-29): 2.1 ± 0.6 µM
IC50 (A-549): 1.8 ± 0.6 µM
IC50 (Panc-1): 1.9 ± 0.5 µM
inhibition at 10 µM (U251; [1]): 17.8%
inhibition at 10 µM (SR; [2]): 50.2%
inhibition at 10 µM (UACC-62; [3]): 16.8%
inhibition at 10 µM (HS 578T; [4]): 11%
inhibition at 10 µM (SN12C; [5]): 15.1%
inhibition at 10 µM (RPMI-8226; [6]): 95%
inhibition at 10 µM (MDA-MB-468; [7]): 0%
inhibition at 10 µM (A498; [8]): 9.85%
inhibition at 10 µM (EKVX; [9]): 6.19%
inhibition at 10 µM (ACHN; [10]): 1.98%
inhibition at 10 µM (SK-MEL-2; [11]): 0%
inhibition at 10 µM (OVCAR-3; [12]): 0%
inhibition at 10 µM (NCI-H226; [13]): 14%
inhibition at 10 µM (HOP-62; [14]): 2.12%
inhibition at 10 µM (CAKI-1; [15]): 16.4%
inhibition at 10 µM (MDA-MB-435; [16]): 0.11%
inhibition at 10 µM (786-0; [17]): 7.38%

COc1ccc(/C=C/C(=O)c2ccc(NC(=O)CSc3nnc(-c4ccc5[nH]c(-c6ccc(Cl)cc6)nc5c4)o3)cc2)cc1 [Compound 7h, 2-{5-[2-(4-Chlorophenyl)-1 H-benzo[d]imidazol-5-yl]-1,3,4-oxadiazol-2-ylthio}-N-{4-[(E)-3-(4-methoxyphenyl)acryloyl]phenyl}acetamide]
IC50 (MCF-7): 1.75 ± 0.4 µM
IC50 (HT-29): 2.25 ± 0.6 µM
IC50 (A-549): 1.95 ± 0.6 µM
IC50 (Panc-1): 2.05 ± 0.5 µM
inhibition at 10 µM (U251; [1]): 3.98%
inhibition at 10 µM (SR; [2]): 19.5%
inhibition at 10 µM (UACC-62; [3]): 16.2%
inhibition at 10 µM (HS 578T; [4]): 5.34%
inhibition at 10 µM (SN12C; [5]): 6.65%
inhibition at 10 µM (RPMI-8226; [6]): 35.6%
inhibition at 10 µM (MDA-MB-468; [7]): 0%
inhibition at 10 µM (A498; [8]): 0%
inhibition at 10 µM (EKVX; [9]): 0%
inhibition at 10 µM (ACHN; [10]): 0%
inhibition at 10 µM (SK-MEL-2; [11]): 0%
inhibition at 10 µM (OVCAR-3; [12]): 0%
inhibition at 10 µM (NCI-H226; [13]): 12.4%
inhibition at 10 µM (HOP-62; [14]): 0%
inhibition at 10 µM (CAKI-1; [15]): 2.63%
inhibition at 10 µM (MDA-MB-435; [16]): 1.94%
inhibition at 10 µM (786-0; [17]): 0.41%
